Data set [1] addresses P-gp (Homo sapiens, UniProt P08183). Kind of data set: Reversal of P-gp-mediated MDR in LCC6MDR cells (MTS cell viability, 5 days). The method, then: To each well of a 96-well plate, 6500 cells of LCC6MDR were seeded in 180 μL supplemented medium. A 10 µL compound (FD18, 14a, FM04 or FM327) at different concentrations (0, 62.5, 125, 250, 500 and 1000 nM) was added to the well. […] The final volume in each well was 200 µL and the 96-well plate was incubated at 37 °C for 5 days. The cell viability was determined using the MTS assay as reported previously. The % of cell survival, IC50 of anticancer drugs towards the LCC6MDR and the EC50 of modulators were analyzed using nonlinear regression in Prism 5.0 (Prism version 5.0, GraphPad software, San Diego, CA, USA).

Data set [2] in a line: Pharmacokinetics of PTX and FM04 after oral co-administration. In kind it is in vivo, Balb/c mice. The note with it: mice. The method, then: Pharmacokinetics (PK) study of PTX or FM04 after their oral co-administration. […] PTX (20 or 70 mg/kg) was orally co-administered with FM04 (0, 22 or 45 mg/kg) to mice, plasma was collected at 30, 60, 120, 240 and 420 min, respectively. […] FM04 (45 or 100 mg/kg) was orally co-administered with PTX (0, 50 or 70 mg/kg) to mice, plasma was collected at 30, 60, 120, 240 and 420 min, respectively. The concentration FM04 at each time point was determined by UPLC-MS/MS Pharmacokinetic parameter AUC was calculated by the pharmacokinetic software-Summit® PK solutions 2.0 (Summit Research Service, Ashland, Wilmington, DE, USA).
PTX drug solution was prepared in 5% Cremophor EL, 5% ethanol and 90% saline on the day of the experiment. PTX + FM04 drug solution was prepared in 7% Cremophor EL, 8% ethanol and 85% saline on the day of the experiment. PTX drug solution or PTX + FM04 mixture drug solution was administered to the Balb/c mice (female, 4–6 week-old) via oral gavage. Blood was collected via cardiac puncture at scheduled time points (10, 30, 60, 120, 240 and 420 min) under deep anesthesia. All animals were terminated at the end of the experiment. Plasma concentrations of FM04 and PTX were detected using UPLC-MS/MS. Plasma concentration–time profiles were analyzed by non-compartmental analysis (NCA). The area under the plasma concentration–time curve by trapezoid rules (AUC) (from 0 to infinity), the terminal half-life (t1/2β), initial half-life (t1/2α), mean residence time (MRT), maximum observed concentration (Cmax) and time to maximum concentration (Tmax) were calculated by PK Solutions 2.0 (Summit Research Service, Ashland, Wilmington, DE, USA).
PTX and its internal standard (IS) separation were performed on Agilent 1290 series UPLC coupled with Agilent 6460 Triple quadrupole. The calibration curve of PTX was constructed by quantifying the known amount of PTX that spiked to blank mice plasma following identical sample preparation. The mass spectrometer was configured in ESI + ionization mode monitoring MRM ion transition of m/z 854 > 286 (PTX) and m/z 882 > 314 (IS). Source parameters were as follows, gas temp (350 °C), gas flow (8 L/min), nebulizer (35 psi) and capillary (4000 V). UPLC chromatographic separation was performed on Waters Acquity UPLC BEH C18 (1.7 µM, 2.1 × 50 mm) with a 5 min gradient elution of 30% acetonitrile with 0.1% formic acid to 76% ACN with 0.1% formic acid. Milli-Q with 0.1% formic acid was used as the aqueous phase. Each separation and re-equilibration were completed in 9 min.
Detection and quantification of FM04 and its internal standard were done by using the UPLC-MS/MS system consist of an Acquity Waters UPLC interfaced with a triple quadrupole mass spectrometer (Micromass model Quattro Ultima) equipped with an electrospray ionization source in positive mode. The desolvation temperature, capillary voltage, cone gas and desolvation gas were 350 °C, 3 Kv, 150 L/h and 600 L/h, respectively. Multiple reaction monitoring (MRM) was set to monitor the transitions from 416 > 239 (FM04) and 423 > 239 (IS). Chromatography separation was done with an Acquity UPLC BEH C8 column (2.1 × 50 mm, 1.7 µM). The mobile phase consisted of methanol + 0.1% formic acid (solvent B) and Milli-Q water + 0.1% formic acid (solvent A). The flow rate was 0.4 mL/min. The initial condition was 90% solvent A and 10% solvent B. After 1 min elution by the initial condition, a linear gradient was performed with solvent B increasing from 10% to 100% for 10 min. Afterwards, the mobile phase was restored to the initial condition for re-equilibration. The total analysis time was 20 min per injection.

[3] abbreviates: oral, PTX 20 mg/kg + FM04 45 mg/kg, relative to 20 mg/kg PTX alone.
Setting [4] is: oral, PTX 70 mg/kg + FM04 22 mg/kg, relative to 70 mg/kg PTX alone.
Where [5] appears, read: oral, PTX 70 mg/kg + FM04 45 mg/kg, relative to 70 mg/kg PTX alone.

Molecules are shown by their SMILES. Read-outs that look alike come from different tables or passages of the source.

P-gp, sequence (P08183 whole entry): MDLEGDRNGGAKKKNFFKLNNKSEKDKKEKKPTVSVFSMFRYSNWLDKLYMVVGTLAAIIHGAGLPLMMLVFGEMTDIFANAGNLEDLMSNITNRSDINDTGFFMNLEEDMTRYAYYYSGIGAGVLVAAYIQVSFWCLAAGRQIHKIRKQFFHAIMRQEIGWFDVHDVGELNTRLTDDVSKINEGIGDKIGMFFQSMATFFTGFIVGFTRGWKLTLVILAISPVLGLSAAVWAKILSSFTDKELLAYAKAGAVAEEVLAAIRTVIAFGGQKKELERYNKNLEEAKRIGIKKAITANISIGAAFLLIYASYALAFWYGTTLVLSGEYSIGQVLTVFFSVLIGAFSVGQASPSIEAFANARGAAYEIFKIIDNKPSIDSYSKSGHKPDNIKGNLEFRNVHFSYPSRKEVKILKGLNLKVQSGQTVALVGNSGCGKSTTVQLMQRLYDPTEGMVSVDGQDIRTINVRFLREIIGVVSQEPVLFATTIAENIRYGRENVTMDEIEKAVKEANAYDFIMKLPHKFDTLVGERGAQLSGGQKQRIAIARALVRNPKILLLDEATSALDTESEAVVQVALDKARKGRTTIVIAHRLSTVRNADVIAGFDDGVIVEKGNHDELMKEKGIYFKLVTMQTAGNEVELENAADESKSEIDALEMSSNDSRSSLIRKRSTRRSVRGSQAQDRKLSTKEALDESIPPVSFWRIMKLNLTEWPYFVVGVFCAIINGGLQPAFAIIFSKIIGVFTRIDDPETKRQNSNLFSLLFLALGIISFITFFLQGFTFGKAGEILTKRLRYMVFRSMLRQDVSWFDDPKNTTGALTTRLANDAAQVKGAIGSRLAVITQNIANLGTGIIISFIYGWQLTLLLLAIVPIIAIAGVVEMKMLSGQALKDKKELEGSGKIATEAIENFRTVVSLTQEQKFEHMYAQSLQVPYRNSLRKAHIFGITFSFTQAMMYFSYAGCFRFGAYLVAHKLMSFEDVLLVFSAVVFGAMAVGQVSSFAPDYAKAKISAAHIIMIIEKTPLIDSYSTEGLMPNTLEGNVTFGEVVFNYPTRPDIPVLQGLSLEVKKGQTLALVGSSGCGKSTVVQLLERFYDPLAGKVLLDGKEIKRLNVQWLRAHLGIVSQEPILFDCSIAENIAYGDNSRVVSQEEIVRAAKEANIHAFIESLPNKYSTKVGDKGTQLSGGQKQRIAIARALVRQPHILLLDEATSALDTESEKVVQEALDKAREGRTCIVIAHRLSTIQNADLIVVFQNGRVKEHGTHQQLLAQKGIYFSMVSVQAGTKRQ

In general, AUC refers to concentration integrated over time. A word on the Cmax: it is the highest concentration seen after dosing. As a reminder, the AUC(0-t) is the area under the concentration-time curve up to a stated or last time point. A word on the Tmax: it is the time at which the peak concentration occurs. For `CC(=O)O[C@H]1C(=O)[C@@]2(C)[C@H]([C@H](OC(=O)c3ccccc3)[C@]3(O)C[C@H](OC(=O)[C@H](O)[C@@H](NC(=O)c4ccccc4)c4ccccc4)C(C)=C1C3(C)C)[C@]1(OC(C)=O)CO[C@@H]1C[C@@H]2O` [PTX, paclitaxel], the “RF, LCC6MDR + 1 μM FM04” value in data set [1] worked out at 34.1. The “RF, LCC6MDR + DMSO” value in data set [1] amounted to 1.0. Further, the AUC is 9400 ng·h/mL in data set [2] (female, Balb/c, mouse, plasma, po, 20 mg/kg, oral, PTX 20 mg/kg + FM04 45 mg/kg); 143 ng·h/mL in data set [2] (female, Balb/c, mouse, plasma, po, 20 mg/kg, PTX 20 mg/kg alone); 30000 ng·h/mL in data set [2] (female, Balb/c, mouse, plasma, po, 70 mg/kg, oral, PTX 70 mg/kg + FM04 45 mg/kg); 523 ng·h/mL in data set [2] (female, Balb/c, mouse, plasma, po, 70 mg/kg, PTX 70 mg/kg alone); 15500 ng·h/mL in data set [2] (female, Balb/c, mouse, plasma, po, oral, PTX 70 mg/kg + FM04 22 mg/kg). The peak concentration (Cmax) in data set [2] (female, Balb/c, mouse, plasma, po, 20 mg/kg, oral, PTX 20 mg/kg, FM04 0 mg/kg, read-out: PTX Cmax) stood at 134 ng/mL; in data set [2] (female, Balb/c, mouse, plasma, po, 70 mg/kg, oral, PTX 70 mg/kg, FM04 0 mg/kg, read-out: PTX Cmax) it was 186 ng/mL; in data set [2] (female, Balb/c, mouse, plasma, po, oral, PTX 20 mg/kg + FM04 45 mg/kg, read-out: PTX Cmax), 3510 ng/mL; in data set [2] (female, Balb/c, mouse, plasma, po, oral, PTX 70 mg/kg + FM04 22 mg/kg, read-out: PTX Cmax), 4950 ng/mL; in data set [2] (female, Balb/c, mouse, plasma, po, oral, PTX 70 mg/kg + FM04 45 mg/kg, read-out: PTX Cmax), 9760 ng/mL. For the same compound, the AUC(0-t) in data set [2] (female, Balb/c, mouse, plasma, po, 70 mg/kg, oral, PTX 70 mg/kg, FM04 0 mg/kg, read-out: PTX AUC(0-t) (converted)) is 523 ng·h/mL; in data set [2] (female, Balb/c, mouse, plasma, po, oral, PTX 20 mg/kg + FM04 45 mg/kg, read-out: PTX AUC(0-t) (converted)) it was 9400 ng·h/mL; in data set [2] (female, Balb/c, mouse, plasma, po, oral, PTX 70 mg/kg + FM04 22 mg/kg, read-out: PTX AUC(0-t) (converted)), 15500 ng·h/mL; in data set [2] (female, Balb/c, mouse, plasma, po, oral, PTX 70 mg/kg + FM04 45 mg/kg, read-out: PTX AUC(0-t) (converted)), 30000 ng·h/mL. Further, in data set [2] (female, Balb/c, mouse, plasma, oral, PTX 20 mg/kg + FM04 45 mg/kg, read-out: PTX Tmax (converted)), the Tmax was 120 min. Also, the entries for the “PTX AUC/Dose fold-change vs PTX alone” value in data set [2] (setting [3]), in data set [2] (setting [4]) and in data set [2] (setting [5]) were 66, 30 and 57, respectively. Moreover, the “PTX Cmax fold-change vs PTX alone” value is listed as 26 in data set [2] (setting [3]), 27 in data set [2] (setting [4]) and 53 in data set [2] (setting [5]). In addition, the “oral absorption of PTX” value in data set [2] (oral PTX 70 mg/kg with FM04 22 mg/kg) came to 6.6%; in data set [2] (oral PTX with FM04 45 mg/kg), 14%; in data set [2] (oral PTX without FM04) it was 0.2%.

As usually defined, the EC50 is the concentration giving half of the maximal effect. As for `O=c1cc(-c2ccc(OCCOCCNCc3ccccc3)cc2)oc2ccccc12` [FM04, 2-(4-(2-(2-(benzylamino)ethoxy)ethoxy)phenyl)-4H-chromen-4-one], the EC50 in data set [1] is 83 ± 7 nM; in data set [1] (EC50 for P-gp modulation, range over PTX reversal and DOX accumulation in LCC6MDR), 64 to 83 nM; in data set [1] (EC50 for chemosensitizing LCC6MDR towards vinblastine, vincristine, DOX, daunorubicin and mitoxantrone, range over the five drugs), 61 to 153 nM; in data set [1] (EC50 needed for reversing MDR in LCC6MDR cells: DOX, LCC6MDR), 153 ± 39 nM; in data set [1] (EC50 needed for reversing MDR in LCC6MDR cells: Daunorubicin, LCC6MDR), 88 ± 52 nM; in data set [1] (EC50 needed for reversing MDR in LCC6MDR cells: Mitoxantrone, LCC6MDR) it was 64 ± 27 nM. Further, the EC50 in data set [1] (EC50 needed for reversing MDR in LCC6MDR cells: PTX, LCC6MDR, PTX resistance) was determined as 83 nM; in data set [1] (EC50 needed for reversing MDR in LCC6MDR cells: Vinblastine, LCC6MDR) it was 61 ± 13 nM; in data set [1] (EC50 needed for reversing MDR in LCC6MDR cells: Vincristine, LCC6MDR), 83 ± 11 nM. Besides, in data set [1], the “EC50 needed for reversing MDR in LCC6MDR cells: PTX” value was determined as 83 nM. Moreover, in data set [1], the “fold higher potency than FD18 in reversing PTX resistance” value is recorded as 1.8 fold. Moreover, the AUC(0-t) is 1820 ng·h/mL in data set [2] (female, Balb/c, mouse, plasma, po, 100 mg/kg, oral, FM04 100 mg/kg, PTX 0 mg/kg, read-out: FM04 AUC(0-t) (converted)); 645 ng·h/mL in data set [2] (female, Balb/c, mouse, plasma, po, oral, FM04 45 mg/kg + PTX 50 mg/kg, read-out: FM04 AUC(0-t) (converted)); 740 ng·h/mL in data set [2] (female, Balb/c, mouse, plasma, po, oral, FM04 45 mg/kg + PTX 70 mg/kg, read-out: FM04 AUC(0-t) (converted)). The Cmax amounted to 1020 ng/mL in data set [2] (female, Balb/c, mouse, plasma, po, 100 mg/kg, oral, FM04 100 mg/kg, PTX 0 mg/kg, read-out: FM04 Cmax); 754 ng/mL in data set [2] (female, Balb/c, mouse, plasma, po, oral, FM04 45 mg/kg + PTX 50 mg/kg, read-out: FM04 Cmax); 481 ng/mL in data set [2] (female, Balb/c, mouse, plasma, po, oral, FM04 45 mg/kg + PTX 70 mg/kg, read-out: FM04 Cmax). For the same compound, the time to peak (Tmax) in data set [2] (female, Balb/c, mouse, plasma, po, 100 mg/kg, oral, FM04 100 mg/kg, PTX 0 mg/kg, read-out: FM04 Tmax (converted)) is 30 min; in data set [2] (female, Balb/c, mouse, plasma, po, oral, FM04 45 mg/kg + PTX 50 mg/kg, read-out: FM04 Tmax (converted)) it was 30 min; in data set [2] (female, Balb/c, mouse, plasma, po, oral, FM04 45 mg/kg + PTX 70 mg/kg, read-out: FM04 Tmax (converted)) it was 60 min. The concentration at 720 min in data set [2] (female, Balb/c, mouse, plasma, FM04 100 mg/kg oral alone, at 720 min, read-out: minimum plasma concentration of FM04) came to 43 ng/mL. For the same compound, the “oral absorption of FM04” value in data set [2] (FM04 100 mg/kg oral alone) is listed as below 0.005%.
